What was measured:
Test in all cases: Mammalian kinase profiling (DSTT panel)
Format in all cases: biochemical
Settings in all cases: 10 μM; average percentage of remaining activity
CK2 = biological target: T1, CK2 (Homo sapiens, UniProt P68400)
T1 construct: purchased Division of Signal Transduction Therapy (DSTT), University of Dundee
Method: (§1) To assess the selectivity of the aminopyrazole inhibitors, remaining activity at 10 μM concentration was measured for compounds 4f, 4m, and 4y against a panel of 80 human PKs and for compound 9g against 124 human PKs. […] Compound 4m inhibited only two PKs, namely GSK3β and CDK2, at more than 80%.
(§2) Selected compounds were screened against a panel of mammalian kinases routinely run by the Division of Signal Transduction Therapy (DSTT) at the University of Dundee in duplicate at 10 μM.[32] Enzymes included in the panel and assay conditions are reported in the literature. All biochemical assays are run below the Km^app for the ATP for each enzyme, allowing comparison of inhibition across the panel.

EPH A2 = biological target: T2, EPH A2 (Homo sapiens, UniProt P29317)
T2 construct: purchased Division of Signal Transduction Therapy (DSTT), University of Dundee
Method: as §1, §2

EPH-B3 = biological target: T3, EPH-B3 (Homo sapiens, UniProt P54753)
T3 construct: purchased Division of Signal Transduction Therapy (DSTT), University of Dundee
T3 sequence (P54753 34-998): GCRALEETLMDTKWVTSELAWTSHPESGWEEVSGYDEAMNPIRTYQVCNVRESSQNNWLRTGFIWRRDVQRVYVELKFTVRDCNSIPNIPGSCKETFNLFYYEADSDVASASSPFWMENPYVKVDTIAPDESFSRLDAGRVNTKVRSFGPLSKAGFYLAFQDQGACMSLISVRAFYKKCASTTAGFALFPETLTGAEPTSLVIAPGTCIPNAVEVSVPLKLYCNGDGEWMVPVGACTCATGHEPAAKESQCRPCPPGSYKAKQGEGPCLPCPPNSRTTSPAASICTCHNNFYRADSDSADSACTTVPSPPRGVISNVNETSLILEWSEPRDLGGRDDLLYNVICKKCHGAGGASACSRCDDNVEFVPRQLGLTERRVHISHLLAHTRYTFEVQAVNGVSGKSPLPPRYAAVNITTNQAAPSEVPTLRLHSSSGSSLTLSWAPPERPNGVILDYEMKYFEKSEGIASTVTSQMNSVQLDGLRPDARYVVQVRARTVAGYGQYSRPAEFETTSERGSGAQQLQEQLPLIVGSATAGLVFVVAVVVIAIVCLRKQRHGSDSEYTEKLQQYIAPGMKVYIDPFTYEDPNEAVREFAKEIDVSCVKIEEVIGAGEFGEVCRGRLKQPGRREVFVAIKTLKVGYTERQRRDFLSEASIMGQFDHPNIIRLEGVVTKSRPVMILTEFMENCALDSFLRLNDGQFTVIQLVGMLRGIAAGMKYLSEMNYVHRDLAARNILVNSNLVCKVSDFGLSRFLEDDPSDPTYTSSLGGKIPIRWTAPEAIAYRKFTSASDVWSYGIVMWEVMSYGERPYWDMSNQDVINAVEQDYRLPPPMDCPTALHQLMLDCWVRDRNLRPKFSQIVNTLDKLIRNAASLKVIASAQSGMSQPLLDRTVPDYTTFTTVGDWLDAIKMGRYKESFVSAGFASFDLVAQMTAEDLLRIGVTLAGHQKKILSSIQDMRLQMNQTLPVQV
Method: as §1, §2

IR-HIS = biological target: T4, IR-HIS (Homo sapiens, UniProt P06213)
T4 construct: purchased Division of Signal Transduction Therapy (DSTT), University of Dundee
Method: as §1, §2

PDK1 = biological target: T5, PDK1 (Homo sapiens, UniProt O15530)
T5 construct: purchased Division of Signal Transduction Therapy (DSTT), University of Dundee
T5 sequence (O15530 1-556): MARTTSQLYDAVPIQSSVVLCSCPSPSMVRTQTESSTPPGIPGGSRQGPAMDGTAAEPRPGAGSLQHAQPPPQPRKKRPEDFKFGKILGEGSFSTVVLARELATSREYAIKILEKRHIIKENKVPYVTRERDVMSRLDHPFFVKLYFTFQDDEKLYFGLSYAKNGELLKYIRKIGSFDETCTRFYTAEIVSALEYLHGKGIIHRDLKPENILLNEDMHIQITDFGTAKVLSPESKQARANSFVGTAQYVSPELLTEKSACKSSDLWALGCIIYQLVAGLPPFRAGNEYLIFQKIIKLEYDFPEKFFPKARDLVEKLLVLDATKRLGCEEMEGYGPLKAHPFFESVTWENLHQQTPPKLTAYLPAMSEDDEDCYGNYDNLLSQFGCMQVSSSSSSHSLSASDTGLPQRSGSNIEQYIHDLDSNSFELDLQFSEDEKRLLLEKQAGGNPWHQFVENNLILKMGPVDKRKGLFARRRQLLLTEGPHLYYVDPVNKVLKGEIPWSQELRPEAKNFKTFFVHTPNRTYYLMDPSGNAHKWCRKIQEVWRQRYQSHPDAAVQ
Method: as §1, §2

PIM2 = biological target: T6, PIM2 (Homo sapiens, UniProt Q9P1W9)
T6 construct: purchased Division of Signal Transduction Therapy (DSTT), University of Dundee
Method: as §1, §2

PRAK = biological target: T7, PRAK (Homo sapiens, UniProt Q8IW41)
T7 construct: purchased Division of Signal Transduction Therapy (DSTT), University of Dundee
T7 sequence (Q8IW41 1-473): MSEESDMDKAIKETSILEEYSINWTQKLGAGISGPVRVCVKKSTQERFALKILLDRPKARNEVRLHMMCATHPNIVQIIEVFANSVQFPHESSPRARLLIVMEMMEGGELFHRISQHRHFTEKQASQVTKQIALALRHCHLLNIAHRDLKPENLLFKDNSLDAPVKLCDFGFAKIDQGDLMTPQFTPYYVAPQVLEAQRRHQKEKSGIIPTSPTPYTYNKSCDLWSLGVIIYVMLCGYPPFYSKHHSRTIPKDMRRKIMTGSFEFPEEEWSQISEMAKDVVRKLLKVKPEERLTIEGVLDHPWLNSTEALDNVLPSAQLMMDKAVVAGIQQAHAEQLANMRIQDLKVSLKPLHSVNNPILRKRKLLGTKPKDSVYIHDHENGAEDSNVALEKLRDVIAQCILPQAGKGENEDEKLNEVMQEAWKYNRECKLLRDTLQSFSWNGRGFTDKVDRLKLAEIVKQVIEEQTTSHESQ
Method: as §1, §2

SRPK1 = biological target: T8, SRPK1 (Homo sapiens, UniProt Q96SB4)
T8 construct: purchased Division of Signal Transduction Therapy (DSTT), University of Dundee
Method: as §1, §2

YES1 = biological target: T9, YES1 (Homo sapiens, UniProt P07947)
T9 construct: purchased Division of Signal Transduction Therapy (DSTT), University of Dundee
Method: as §1, §2

T9 sequence (P07947 whole entry): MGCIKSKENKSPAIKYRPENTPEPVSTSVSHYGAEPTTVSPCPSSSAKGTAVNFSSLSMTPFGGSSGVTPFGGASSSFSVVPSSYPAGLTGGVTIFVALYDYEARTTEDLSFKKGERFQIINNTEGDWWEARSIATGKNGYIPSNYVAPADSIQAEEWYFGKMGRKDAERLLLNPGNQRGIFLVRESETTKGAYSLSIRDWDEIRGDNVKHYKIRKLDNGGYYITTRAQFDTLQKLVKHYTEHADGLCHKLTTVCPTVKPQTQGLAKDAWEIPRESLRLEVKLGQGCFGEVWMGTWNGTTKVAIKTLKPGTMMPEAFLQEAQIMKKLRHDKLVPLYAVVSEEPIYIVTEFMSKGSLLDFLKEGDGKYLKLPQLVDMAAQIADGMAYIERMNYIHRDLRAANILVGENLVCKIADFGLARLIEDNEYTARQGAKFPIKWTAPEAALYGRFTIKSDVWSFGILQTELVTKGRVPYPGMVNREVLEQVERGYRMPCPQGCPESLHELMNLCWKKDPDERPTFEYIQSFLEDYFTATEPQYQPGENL
T2 sequence (P29317 24-976): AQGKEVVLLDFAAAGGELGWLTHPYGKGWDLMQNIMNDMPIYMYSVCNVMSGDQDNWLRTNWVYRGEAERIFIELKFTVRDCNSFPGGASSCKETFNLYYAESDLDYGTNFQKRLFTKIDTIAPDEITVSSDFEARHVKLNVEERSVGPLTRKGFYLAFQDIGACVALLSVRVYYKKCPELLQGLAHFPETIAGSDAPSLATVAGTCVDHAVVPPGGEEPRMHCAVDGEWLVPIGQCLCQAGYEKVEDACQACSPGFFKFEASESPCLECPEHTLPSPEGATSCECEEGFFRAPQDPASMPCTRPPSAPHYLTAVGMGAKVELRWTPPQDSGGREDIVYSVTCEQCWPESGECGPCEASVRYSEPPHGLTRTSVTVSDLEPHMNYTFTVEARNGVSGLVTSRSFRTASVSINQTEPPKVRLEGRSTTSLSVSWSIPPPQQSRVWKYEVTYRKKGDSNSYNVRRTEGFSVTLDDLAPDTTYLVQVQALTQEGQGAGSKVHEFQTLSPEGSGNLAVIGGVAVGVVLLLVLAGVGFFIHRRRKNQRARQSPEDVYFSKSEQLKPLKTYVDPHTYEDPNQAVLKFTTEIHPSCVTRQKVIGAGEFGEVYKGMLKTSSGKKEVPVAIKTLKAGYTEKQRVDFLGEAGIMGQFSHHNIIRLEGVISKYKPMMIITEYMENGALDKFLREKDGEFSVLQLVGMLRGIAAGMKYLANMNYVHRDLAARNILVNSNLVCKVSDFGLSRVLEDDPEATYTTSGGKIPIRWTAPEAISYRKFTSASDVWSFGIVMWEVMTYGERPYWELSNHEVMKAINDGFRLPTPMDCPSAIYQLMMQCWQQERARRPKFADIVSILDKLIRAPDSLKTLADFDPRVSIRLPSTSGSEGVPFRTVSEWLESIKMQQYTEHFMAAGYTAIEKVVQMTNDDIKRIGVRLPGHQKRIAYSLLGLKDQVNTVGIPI
T6 sequence (Q9P1W9 whole entry): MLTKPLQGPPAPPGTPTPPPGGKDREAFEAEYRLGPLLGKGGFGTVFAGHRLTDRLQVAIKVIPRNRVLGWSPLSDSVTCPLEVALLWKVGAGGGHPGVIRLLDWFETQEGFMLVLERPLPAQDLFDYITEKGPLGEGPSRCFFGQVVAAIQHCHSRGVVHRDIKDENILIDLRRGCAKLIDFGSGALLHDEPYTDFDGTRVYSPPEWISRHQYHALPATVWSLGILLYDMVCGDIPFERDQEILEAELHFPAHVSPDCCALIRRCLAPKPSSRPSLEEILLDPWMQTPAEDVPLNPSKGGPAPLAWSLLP
T4 sequence (P06213 28-1382): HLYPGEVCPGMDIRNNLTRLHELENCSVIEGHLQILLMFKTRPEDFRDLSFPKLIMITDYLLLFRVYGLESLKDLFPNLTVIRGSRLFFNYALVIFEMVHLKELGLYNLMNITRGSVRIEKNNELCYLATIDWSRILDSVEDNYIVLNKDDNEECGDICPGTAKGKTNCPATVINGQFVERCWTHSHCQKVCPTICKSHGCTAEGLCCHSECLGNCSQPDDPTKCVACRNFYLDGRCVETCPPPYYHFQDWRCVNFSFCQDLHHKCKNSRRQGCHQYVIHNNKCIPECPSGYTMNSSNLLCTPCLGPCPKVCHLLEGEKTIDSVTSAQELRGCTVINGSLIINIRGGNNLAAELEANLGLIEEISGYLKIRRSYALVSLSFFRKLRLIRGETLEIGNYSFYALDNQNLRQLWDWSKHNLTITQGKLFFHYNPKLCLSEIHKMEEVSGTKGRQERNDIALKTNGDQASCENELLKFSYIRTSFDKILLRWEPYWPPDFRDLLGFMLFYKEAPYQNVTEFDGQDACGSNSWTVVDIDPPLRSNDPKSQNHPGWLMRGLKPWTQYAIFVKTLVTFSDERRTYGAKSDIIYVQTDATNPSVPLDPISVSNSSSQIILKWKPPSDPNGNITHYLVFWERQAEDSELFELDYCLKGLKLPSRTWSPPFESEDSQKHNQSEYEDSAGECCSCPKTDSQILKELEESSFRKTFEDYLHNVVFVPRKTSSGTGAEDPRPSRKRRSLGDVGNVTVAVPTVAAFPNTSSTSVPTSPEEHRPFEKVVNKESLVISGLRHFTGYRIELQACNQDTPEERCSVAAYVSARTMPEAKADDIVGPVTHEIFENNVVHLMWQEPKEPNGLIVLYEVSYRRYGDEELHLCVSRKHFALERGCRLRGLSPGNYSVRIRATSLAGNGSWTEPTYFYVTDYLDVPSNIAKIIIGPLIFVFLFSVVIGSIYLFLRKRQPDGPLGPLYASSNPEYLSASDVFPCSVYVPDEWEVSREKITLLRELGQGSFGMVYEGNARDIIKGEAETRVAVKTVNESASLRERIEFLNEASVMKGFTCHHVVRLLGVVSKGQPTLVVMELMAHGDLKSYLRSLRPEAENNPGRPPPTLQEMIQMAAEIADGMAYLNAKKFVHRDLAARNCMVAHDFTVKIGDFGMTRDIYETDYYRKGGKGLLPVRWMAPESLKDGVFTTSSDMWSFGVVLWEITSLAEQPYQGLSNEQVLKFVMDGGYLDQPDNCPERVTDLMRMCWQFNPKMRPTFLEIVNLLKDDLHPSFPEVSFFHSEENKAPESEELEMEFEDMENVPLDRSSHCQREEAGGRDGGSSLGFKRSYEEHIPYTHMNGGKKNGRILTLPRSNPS
T8 sequence (Q96SB4 whole entry): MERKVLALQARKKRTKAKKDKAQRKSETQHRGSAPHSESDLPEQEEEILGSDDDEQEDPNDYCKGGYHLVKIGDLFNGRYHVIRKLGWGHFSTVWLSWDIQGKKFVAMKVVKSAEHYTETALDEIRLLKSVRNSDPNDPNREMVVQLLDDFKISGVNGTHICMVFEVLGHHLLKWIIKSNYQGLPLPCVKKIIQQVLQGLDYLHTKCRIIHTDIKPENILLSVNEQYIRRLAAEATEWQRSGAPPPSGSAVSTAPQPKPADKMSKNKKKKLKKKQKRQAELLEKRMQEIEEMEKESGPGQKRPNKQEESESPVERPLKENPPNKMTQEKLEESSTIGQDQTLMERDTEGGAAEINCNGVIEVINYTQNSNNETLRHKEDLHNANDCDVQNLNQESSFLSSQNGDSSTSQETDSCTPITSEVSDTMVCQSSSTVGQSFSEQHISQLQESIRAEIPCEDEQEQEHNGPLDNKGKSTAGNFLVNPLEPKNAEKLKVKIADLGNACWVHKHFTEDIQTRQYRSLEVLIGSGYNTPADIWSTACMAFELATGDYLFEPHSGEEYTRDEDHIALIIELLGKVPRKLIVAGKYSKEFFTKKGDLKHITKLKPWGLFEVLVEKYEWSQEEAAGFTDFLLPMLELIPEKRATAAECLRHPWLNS
T1 sequence (P68400 whole entry): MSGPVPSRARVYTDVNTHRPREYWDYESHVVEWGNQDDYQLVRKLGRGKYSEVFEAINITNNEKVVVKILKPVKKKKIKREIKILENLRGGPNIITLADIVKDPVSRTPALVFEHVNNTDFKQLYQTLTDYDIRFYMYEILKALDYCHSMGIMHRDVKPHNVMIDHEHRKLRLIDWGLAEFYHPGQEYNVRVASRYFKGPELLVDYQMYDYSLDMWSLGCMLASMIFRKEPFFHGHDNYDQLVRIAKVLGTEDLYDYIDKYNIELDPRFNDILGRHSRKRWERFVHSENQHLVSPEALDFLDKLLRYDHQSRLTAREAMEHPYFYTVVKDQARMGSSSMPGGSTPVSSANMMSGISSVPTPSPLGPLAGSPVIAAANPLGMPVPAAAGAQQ

Compound	CK2 activity compared to the control (CK2)	EPH A2 activity compared to the control (EPH A2)	EPH-B3 activity compared to the control (EPH-B3)	IR-HIS activity compared to the control (IR-HIS)	PDK1 activity compared to the control (PDK1)	PIM2 activity compared to the control (PIM2)	PRAK activity compared to the control (PRAK)	SRPK1 activity compared to the control (SRPK1)	YES1 activity compared to the control (YES1)
CO[C@H]1CC[C@H](NC(=O)c2n[nH]cc2NC(=O)c2ccccc2)CC1 [Compound 4f, 4-Benzamido-N-(4-methoxycyclohexyl)-1H-pyrazole-3-carboxamide]	74%	100%	60%	84%	87%	90%	52%	90%	100%
COc1cccc(OC)c1C(=O)Nc1c[nH]nc1C(=O)NC1CCC(OC)CC1 (stereo not drawn) [Compound 4m, 4-(2,6-Dimethoxybenzamido)-N-(4-methoxycyclohexyl)-1H-pyrazole-3-carboxamide]	100%	100%	100%	99%	87%	97%	92%	78%	79%
CO[C@H]1CC[C@H](NC(=O)c2n[nH]cc2NC(=O)c2ccc(-c3ccccc3)o2)CC1 [Compound 4y, N-(4-Methoxycyclohexyl)-4-(5-phenylfuran-2-carboxamido)-1H-pyrazole-3-carboxamide]	21%	100%	72%	50%	86%	82%	65%	72%	45%

— article PMC4175002, “The Design and Synthesis of Potent and Selective Inhibitors of Trypanosoma brucei Glycogen Synthase Kinase 3 for the Treatment of Human African Trypanosomiasis” (Journal of Medicinal Chemistry, 2014)
